Laboratory results reported in patent US10293014B2, “Immune stimulating composition comprising an extract of Aronia sp. in combination with selenium and/or zinc” (Ursapharm Arzneimittel GmbH, priority 2009, dated 2019).

System: macrophages of the mouse leukaemic monocyte macrophage cell line RAW 264.7
Experiment: Chemiluminescence assay of macrophage activity (lucigenine, zymosan)
Type: cell-based
Conditions: selenium alone, RAW 264.7, FIG. 3
Description: Cells: Cell line (RAW 264.7, murine macrophages) was purchased from the America Type Culture Collection and cultivated as recommended.
Chemiluminescence Assay: Lucigenine (Sigma Chemicals Co.) was dissolved in Hank's Balanced Salt Solution (HBSS; Gibco Co.) at a concentration of 2×10^−3 M. This stock solution was further diluted in HBSS prior to use. 1 ml cells (5×10^6 cells/ml) were incubated with 0.1 ml solution of Aronia extract and Aronia extract together with sodium selenite (dosis kinetics for each component and the combinations as documented in the figures). All these constituents were kept in an incubator (37° C., 5% CO2) for 30 min, then centrifuged at 1200 U/min for 5 min and resuspended in minimal essential medium (MEM, Gibco Co.).
The reaction mixture consisted of a suspension (0.25 ml) at a concentration of 5×10^6 PMNL (polymorphonuclear leucocytes)/ml respectively monocytes/macrophages, 50 μl zymosan, and 0.45 ml medium containing 2×10^−6 M lucigenine. The reaction mixture was kept at 37° C. before chemoluminescence measurements were performed with a Luminometer (Luminoskan 1251, Labsystems) according to manufacturer's instructions (User's Manual 1995).

`O=[Se]([O-])[O-].[Na+].[Na+]` [selenium, sodium selenite] was tested. Which “concentrations that decrease macrophage activity” value did it give?
The value was > 8 µg/mL.
